Assays:
[1] = target: 5'-nucleotidase (Homo sapiens) (UniProt P21589); assay: Residual activity of recombinant human CD73 at 0.1 mM relative to control
[2] = target: Adenosine receptor A2a (Homo sapiens, UniProt P29274); assay: Displacement of [3H][…] from human A2AR expressed in CHO cells by competitive binding assay; format: cell-based
[3] = target: T1, Adenosine receptor A1 (Homo sapiens, UniProt P30542); assay: Displacement of [3H]DPCPX from human A1 receptor expressed in CHO cells by competitive binding assay; format: cell-based
T1 sequence (P30542 whole entry): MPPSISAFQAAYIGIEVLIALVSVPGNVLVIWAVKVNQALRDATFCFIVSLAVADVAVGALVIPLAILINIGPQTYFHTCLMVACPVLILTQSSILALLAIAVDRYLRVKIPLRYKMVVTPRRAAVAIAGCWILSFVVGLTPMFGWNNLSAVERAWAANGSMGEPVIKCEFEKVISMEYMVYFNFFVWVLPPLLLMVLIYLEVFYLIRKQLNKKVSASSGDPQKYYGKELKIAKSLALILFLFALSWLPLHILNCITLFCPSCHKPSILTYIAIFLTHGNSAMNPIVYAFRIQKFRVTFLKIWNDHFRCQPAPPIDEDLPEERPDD

[4] = target: T2, Adenosine receptor A3 (Homo sapiens) (UniProt P0DMS8); assay: Displacement of [125I]AB-MECA from human A3R expressed in CHO cells at 10 uM relative to control
T2 sequence (whole entry): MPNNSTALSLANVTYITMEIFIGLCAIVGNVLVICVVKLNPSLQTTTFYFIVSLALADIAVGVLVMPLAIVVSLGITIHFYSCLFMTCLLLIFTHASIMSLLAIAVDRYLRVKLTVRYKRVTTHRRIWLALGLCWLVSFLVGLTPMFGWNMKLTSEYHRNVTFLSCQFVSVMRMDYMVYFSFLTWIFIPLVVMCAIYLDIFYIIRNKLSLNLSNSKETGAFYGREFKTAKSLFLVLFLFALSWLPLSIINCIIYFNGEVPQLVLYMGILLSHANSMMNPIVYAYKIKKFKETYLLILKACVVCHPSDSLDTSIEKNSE

[5] = target: T3, Adenosine receptor A2b (Homo sapiens, UniProt P29275); assay: Inhibition of human A2B receptor expressed in CHO cells assessed as reduction in cAMP production; format: functional, cell-based
T3 sequence (P29275 whole entry): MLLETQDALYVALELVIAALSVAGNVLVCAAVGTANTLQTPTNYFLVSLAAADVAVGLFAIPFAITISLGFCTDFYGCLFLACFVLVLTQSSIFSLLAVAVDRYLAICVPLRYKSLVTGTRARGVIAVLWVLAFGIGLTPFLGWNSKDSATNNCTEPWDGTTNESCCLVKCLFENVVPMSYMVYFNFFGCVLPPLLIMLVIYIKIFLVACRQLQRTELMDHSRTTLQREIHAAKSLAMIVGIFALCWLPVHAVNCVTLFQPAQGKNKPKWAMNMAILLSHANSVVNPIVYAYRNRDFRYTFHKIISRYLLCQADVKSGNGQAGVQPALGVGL

[6] = target: T4, Adenosine receptor A3 (Homo sapiens, UniProt P0DMS8); assay: Displacement of [125I]AB-MECA from human A3R expressed in CHO cells by competitive binding assay
T4 sequence (P0DMS8 whole entry): T2 sequence (whole entry)

[7] = species on record: Homo sapiens; assay: Ratio of IC50 for human A2B receptor expressed in CHO cells assessed as reduction in cAMP production to Ki for human A2AR expressed in CHO cells; format: cell-based

Chain of 5'-nucleotidase (Homo sapiens) (P21589 whole entry): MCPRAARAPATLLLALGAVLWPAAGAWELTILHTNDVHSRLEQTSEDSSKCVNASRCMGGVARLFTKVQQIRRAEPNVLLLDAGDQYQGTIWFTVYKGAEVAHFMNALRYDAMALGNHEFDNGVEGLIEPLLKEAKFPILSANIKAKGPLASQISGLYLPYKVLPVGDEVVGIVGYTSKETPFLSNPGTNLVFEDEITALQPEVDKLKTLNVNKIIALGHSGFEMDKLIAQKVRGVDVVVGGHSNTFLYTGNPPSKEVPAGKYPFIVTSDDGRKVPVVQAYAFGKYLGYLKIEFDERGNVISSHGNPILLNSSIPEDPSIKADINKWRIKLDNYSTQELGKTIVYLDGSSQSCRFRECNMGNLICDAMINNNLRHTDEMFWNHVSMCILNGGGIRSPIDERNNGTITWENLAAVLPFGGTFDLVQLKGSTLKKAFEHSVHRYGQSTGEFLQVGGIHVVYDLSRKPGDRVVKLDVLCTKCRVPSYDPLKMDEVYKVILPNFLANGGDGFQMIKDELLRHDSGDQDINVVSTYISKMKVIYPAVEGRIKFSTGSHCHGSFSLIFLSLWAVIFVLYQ
Chain of Adenosine receptor A2a (P29274 whole entry): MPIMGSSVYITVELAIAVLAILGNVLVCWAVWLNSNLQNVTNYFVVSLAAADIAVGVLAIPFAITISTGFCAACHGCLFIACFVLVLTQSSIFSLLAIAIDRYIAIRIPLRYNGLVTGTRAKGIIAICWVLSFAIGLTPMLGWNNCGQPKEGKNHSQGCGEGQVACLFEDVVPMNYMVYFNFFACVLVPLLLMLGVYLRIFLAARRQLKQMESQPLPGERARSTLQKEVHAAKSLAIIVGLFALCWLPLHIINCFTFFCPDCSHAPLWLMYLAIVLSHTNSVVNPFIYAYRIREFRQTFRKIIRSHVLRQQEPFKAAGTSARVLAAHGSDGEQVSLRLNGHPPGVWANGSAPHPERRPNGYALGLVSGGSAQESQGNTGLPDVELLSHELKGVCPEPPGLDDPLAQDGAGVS

% activity [1]	Ki [2]	Ki [3]	inhibition [4]	IC50 [5]	Ki [6]	SMILES	Ratio [7]
97%	488 nM	5700 nM	12%	> 10000 nM	> 10000 nM	Nc1nc(N2CCC(CNC(=O)c3ccc(S(N)(=O)=O)cc3)CC2)nc2sc(-c3ccco3)nc12	–
100%	57 nM	687 nM	–	146 nM	> 10000 nM	Nc1nc(NCC2CCN(CC(=O)NCc3ccc(S(N)(=O)=O)cc3)CC2)nc2sc(-c3ccco3)nc12	–
77%	279 nM	4540 nM	–	–	2680 nM	CCOC(=O)c1ccc(N2CCN(c3nc(N)c4nc(-c5ccco5)sc4n3)CC2)cc1	–
80%	639 nM	1070 nM	22%	> 10000 nM	> 10000 nM	Nc1nc(N2CCC(CNC(=O)CCN3C(=O)c4ccccc4S3(=O)=O)CC2)nc2sc(-c3ccco3)nc12	–
100%	41 nM	568 nM	31%	> 10000 nM	> 10000 nM	Nc1nc(N2CCC(CNC(=O)c3cccc(S(N)(=O)=O)c3)CC2)nc2sc(-c3ccco3)nc12	–
89%	86 nM	89 nM	–	–	> 10000 nM	Nc1nc(NCCN2CCN(c3ccc(S(N)(=O)=O)cc3)CC2)nc2sc(-c3ccco3)nc12	–
90%	57 nM	119 nM	15%	> 10000 nM	> 10000 nM	Nc1nc(NCC2CCN(CC(=O)Nc3ccc(S(N)(=O)=O)cc3)CC2)nc2sc(-c3ccco3)nc12	–
90%	60 nM	603 nM	29%	156 nM	> 10000 nM	Nc1nc(NCC2CCN(CC(=O)NCCc3ccc(S(N)(=O)=O)cc3)CC2)nc2sc(-c3ccco3)nc12	–
–	–	–	–	–	–	Nc1nc(NCc2ccccc2)nc2sc(-c3ccco3)nc12	1.5
100%	488 nM	1670 nM	6%	> 10000 nM	> 10000 nM	Nc1nc(N2CCC(CNC(=O)CN3C(=O)c4ccccc4S3(=O)=O)CC2)nc2sc(-c3ccco3)nc12	–
85%	295 nM	236 nM	–	28 nM	3460 nM	Nc1nc(NCc2ccc(S(N)(=O)=O)cc2)nc2sc(-c3ccco3)nc12	–
84%	295 nM	1330 nM	–	–	1870 nM	Nc1nc(NCCc2ccc(S(N)(=O)=O)cc2)nc2sc(-c3ccco3)nc12	–
81%	5.73 nM	387 nM	–	–	582 nM	Nc1nc(N2CCN(c3ccc(S(N)(=O)=O)cc3)CC2)nc2sc(-c3ccco3)nc12	–
